Read-outs that look alike come from different tables or passages of the source.
Columns and labels:
[1] = Liver microsome metabolic stability, human; assay type: in vitro ADME; details: human liver microsomes
Procedure: The liver microsome stability assay of eurycomanone was estimated using phase I and phase II enzymes in five types of microsomes (mice, rat, dog, monkey, and human). Eurycomanone at 1 mM (20 µL), microsomes at 0.3 mg/mL (20 µL), and 10 mg/mL of alamethicin in 1:1 DMSO and methanol (20 µL) were preincubated at 37 °C for 10 min. The cofactor, 5 mM UDPGA (20 µL), and 1 mM NADPH (20 µL) were added to make the final assay volume of 100 µL. At timepoints 0, 15, 30, 45, 60, and 90 min, […] of the reaction mixture is taken out and added to the stop solution. The supernatants (10,000 rpm, 10 min, 4 °C) were collected and analysed using LC-MS/MS. The standards used for mice and rat liver microsomes were propranolol and dasatinib. The standards used with the dog and monkey liver microsomes were propranolol and midazolam, while the standards used with the human liver microsomes were propranolol and terfinadine.

[2] = Plasma protein binding (rapid equilibrium dialysis), monkey; assay type: in vitro ADME; details: pH 7.4, 37 °C, read-out: percentage bound to plasma protein (converted)
Procedure: The ability of eurycomanone to bind plasma protein was analysed in five types of plasma (mice, rat, dog, monkey, and human). Each type of plasma was spiked with eurycomanone (1 mM) to make the 10 µM test concentration of eurycomanone in the plasma. Equilibrium dialysis buffer (500 µL) at pH 7.4 was added to the right chamber in rapid equilibrium dialysis (RED), while the spiked plasma (300 µL) was added to the left chamber. The Teflon base plate was covered with aluminium foil and left on the shaking incubator at 37 °C for 4 h. The matrix was balanced by mixing 100 µL of the equilibrium buffer with the spiked plasma from the left chamber in RED before adding the stop solution (350 µL) to precipitate out the protein. The supernatant (10,000 rpm, 10 min, 4 °C) was collected and analysed using LC-MS/MS. The standards (propranolol, warfarin, and acebutalol) were analysed in duplicates.

[3] = Lipophilicity, shake flask method with octanol and buffer (pH 7.4); assay type: physicochemical; details: pH 7.4, octanol/buffer shake flask; read-out: distribution coefficient log D
Procedure: The lipophilicity of eurycomanone was estimated using the shake flask method with octanol and buffer (pH 7.4). Eurycomanone (5 µL) at 5 mM concentration is added to octanol (495 µL) and DMSO (495 µL) and also into the aqueous and octanol phase in a 1:1 ratio ([…] of octanol phase and 247.5 µL of aqueous phase). The octanol and aqueous phases were prepared using a saturation process, where equal amounts of D-PBS (pH 7.4) and octanol were saturated (300 rpm, room temperature) for 24 h before being separated and kept at room temperature. The prepared mixtures were vortexed and kept on the shaker (300 rpm) at room temperature for 16 h. The mixtures were allowed to stand for 30 min, and 200 µL of solution was transferred and sent for HPLC analysis.

[4] = Pharmacokinetics of eurycomanone (pure compound) in rats (intravenous and oral); assay type: in vivo; details: male, Wistar, rat, plasma; for AUC(0-t): read-out: AUC0–8
Description: The ethical approval for the animal experiments conducted in India was granted from the Animal Ethics Committee, Aurigene Discovery Technologies, Bangalore, India. Eight male Wistar rats (12 weeks old; weighing 250–350 g) and eight Caeserean Derived-1 (CD-1) mice (weighing 20–30 g) were obtained from the Animal House, Aurigene Discovery Technologies, Bangalore, India. They were supplied with standard rodent diets and drinking water ad libitum. Each rodent species (i.e., rats and mice) were divided into two groups. One group (n = 3 for each rodent species) was administered with eurycomanone via the intravenous route (IV) and another group (n = 3 for each rodent species) via the oral route (PO) using oral gavage intubation needle. Two animals of each of the species were used as a control and they received reverse osmosis water. All rats underwent jugular vein cannulation surgery 72 h prior to the administration of the eurycomanone.
Eurycomanone (rats: 1.5 mg/mL for IV route and 3.0 mg/mL for PO route; mice: 0.5 mg/mL for IV route and 1.0 mg/mL for PO route) samples were prepared fresh on the day of dosing. For the IV administration, eurycomanone was dissolved in 3% NMP and 97% of 10% HPCD in saline. For the oral administration, eurycomanone was dissolved in 3% NMP and 97% of 30% HPCD in saline. Both samples were sonicated before use. The SWE (5 mg/mL for IV route, 10 mg/mL for PO route) was prepared fresh on the day of dosing. For the IV administration, the SWE was dissolved in reverse osmosis water and filtered (0.2 µm pore size) before administration. The SWE for the PO administration was prepared using the same method, except without filtering. The animals were not fasted and doses given were based on the body weights prior to dosing.
Blood specimens (approximately 0.30–0.40 mL via the jugular vein cannula for rats and 0.10–0.20 mL via submanibular bleeding for mice) were collected at time points 0.083 (IV group only), 0.25, 0.5, 1, 2, 4, 6, and 8 h post-dosing with eurycomanone. At the experiment end point, the animals were euthanized by excess isoflurane inhalation followed by cervical dislocation. In the experiment using SWE, the rats were placed in metabolic cages (Techniplast, West Chester, PA, USA) and blood (approximately 0.30–0.40 mL collected via the jugular vein cannula), urine, and faeces specimens were collected at the same time points with the above plus one additional time point of 24 h. Kidney and liver specimens were collected at necropsy, where the rats were euthanized by CO2 inhalation followed by cervical dislocation. All blood specimens were centrifuged (10,000 rpm, 10 min) to obtain plasma and were stored at −80 °C until processed. Urine and faeces specimens were collected into plastic containers on wet ice while the organ specimens were snap-frozen in liquid nitrogen and maintained at −80 °C until processed.
Plasma specimens (100 µL), collected from the eurycomanone experiment were added with the internal standard solution (10 µL). Plasma proteins were precipitated with ACN (300 µL), vortex-mixed for 5 min, and centrifuged at 4000 rpm for 7 min. The supernatant was collected and evaporated using a nitrogen evaporator for 20 min at 50 °C. Thereafter, they were reconstituted with the mobile phase (500 µL) and transferred into LC-MS vials for analysis.
Eurycomanone detection in the pure eurycomanone experiments was done via the LC-MS/MS system consisting of an Agilent 1260 Infinity HPLC system and an AB SCIEX API 4000™ Triple-Quadrupole mass spectrometer equipped with TurboIonSpray® probe and atmospheric pressure chemical ionization (APCI) (AB Sciex LLC, Framingham, MA, USA). Electrospray ionization (ESI) was performed in positive ion mode. The analytical column was Agilent Zorbax Eclipse-C18 (4.6 mm I.D. × 150 mm, 3.5 µm). The mobile phase consisted of 0.1% formic acid (solvent A) and 90% ACN with 0.1% formic acid (solvent B). […]

For `C=C1[C@@H](O)[C@]2(O)OC[C@]34[C@H]2[C@@]2(C)[C@H](O)C(=O)C=C(C)[C@@H]2C[C@H]3OC(=O)[C@H](O)[C@@]14O` [Eurycomanone], the “Half-life (t1/2)” value [1] was greater than 1.5 h, the half-life at 200 µM [1] was greater than 1.5 h and the CLint scaled at 200 µM ([1]; read-out: Intrinsic clearance (Clint)) was 52.4 mL/min/kg. For the same compound, the fraction unbound at 4 h, 10 µM [2] was 0.646, the logD at 16 h [3] was -0.35 and the AUC(0-t) ([4]; 3 mg/kg intravenous) was 970 ng·h/mL. It also gave an AUC(0-t) ([4]; 30 mg/kg oral) of 1150 ng·h/mL, a Cmax ([4]; 30 mg/kg oral, read-out: Observed Cmax) of 238 ng/mL and a half-life ([4]; 3 mg/kg intravenous, read-out: Half-life (t1/2) (converted)) of 0.3 h. It also gave a clearance ([4]; 3 mg/kg intravenous, read-out: Plasma Clearance (CL) (converted)) of 45.7 mL/min/kg, a Vd ([4]; 3 mg/kg intravenous, read-out: Volume of Distribution at Steady State (Vss)) of 0.95 L/kg and a bioavailability ([4]; 30 mg/kg oral vs 3 mg/kg intravenous, read-out: Bioavailability (F)) of 11.8%. For the same compound, the Tmax ([4]; 30 mg/kg oral, read-out: Observed Tmax) was 2 h.

Reference: paper PMC6161288, “Bioavailability of Eurycomanone in Its Pure Form and in a Standardised Eurycoma longifolia Water Extract” (Pharmaceutics, 2018)
